≈ marks a conversion by molar mass, not a printed value. Read-outs that look alike come from different tables or passages of the source. Where a SMILES comes first, the peptide text is derived from it.
Experiments:
[1] = tested on: Escherichia coli
[2] = tested on: B. cereus
[3] = first concentration that prohibits growth by OD at 24 hours, Table 1

| Compound | MIC E. coli ([1]; 24 h) | MIC B. cereus [2, 3] | MIC E. coli [1, 3] | MIC B. cereus ([2]; 24 h) | MIC B. cereus [2] |
| --- | --- | --- | --- | --- | --- |
| CC[C@H](C)[C@H](NC(=O)[C@H](CCCCN)NC(=O)[C@H](Cc1ccccc1)NC(=O)[C@@H](NC(=O)[C@H](C)NC(=O)[C@@H]1CCCN1)C(C)C)C(=O)N[C@@H](C)C(=O)N[C@@H](CO)C(=O)N[C@@H](CCCCN)C(=O)N[C@H](C(=O)N[C@H](C(=O)N1CCC[C@H]1C(=O)N[C@@H](CO)C(=O)N[C@H](C(=O)N[C@@H](Cc1ccc(O)cc1)C(=O)N[C@@H](CS)C(=O)N[C@@H](CCCCN)C(=O)N[C@H](C(=O)N[C@@H](CO)C(=O)N[C@@H](CCCNC(=N)N)C(=O)O)C(C)C)C(C)C)C(C)C)C(C)C [Peptide 29] (H-PAVFKIASKVVPSVYCKVSR-OH; N-terminus and C-terminus assumed) | 128 µg/mL (≈ 58.8 µM) | + (MIC greater than 256 ug/mL) |  |  |  |
| CC[C@H](C)[C@H](NC(=O)[C@H](CC(=O)O)NC(=O)[C@H](CCCCN)NC(=O)[C@@H](NC(=O)[C@H](CC(C)C)NC(=O)[C@H](CO)NC(=O)[C@H](CCSC)NC(=O)[C@H](CC(C)C)NC(=O)CN)C(C)C)C(=O)N[C@@H](C)C(=O)N[C@@H](CCCCN)C(=O)N[C@@H](CC(C)C)C(=O)N[C@@H](C)C(=O)N[C@@H](C)C(=O)N[C@@H](CCCCN)C(=O)N[C@@H](CCC(N)=O)C(=O)NCC(=O)N[C@@H](C)C(=O)N[C@@H](CCCCN)C(=O)N[C@@H](CCC(N)=O)C(=O)O [Peptide 9] (H-GLMSLVKDIAKLAAKQGAKQ-OH; N-terminus and C-terminus assumed) | 256 µg/mL (≈ 124 µM) | + (MIC greater than 256 ug/mL) |  |  |  |
| PVVGRVASKVFPAVIGLVKK [Peptide 45] |  | + (MIC greater than 256 ug/mL) | + (MIC greater than 256 ug/mL) |  |  |
| CC[C@H](C)[C@H](NC(=O)CNC(=O)[C@H](CCC(=O)O)NC(=O)[C@H](CO)NC(=O)[C@@H](NC(=O)[C@H](CCCNC(=N)N)NC(=O)[C@H](CCCCN)NC(=O)[C@H](CCCCN)NC(=O)[C@H](C)NC(=O)[C@H](CO)NC(=O)[C@H](CC(N)=O)NC(=O)[C@H](CCC(=O)O)NC(=O)[C@H](CC(C)C)NC(=O)[C@H](CCCCN)NC(=O)[C@H](CCCCN)NC(=O)[C@H](C)NC(=O)[C@@H](NC(=O)[C@H](CCCCN)NC(=O)[C@H](CO)NC(=O)[C@H](CC(C)C)NC(=O)[C@H](Cc1c[nH]c2ccccc12)NC(=O)[C@@H](N)CO)[C@@H](C)O)[C@@H](C)CC)C(=O)N[C@@H](C)C(=O)N[C@H](C(=O)N[C@@H](C)C(=O)N[C@H](C(=O)N[C@@H](CCC(N)=O)C(=O)NCC(=O)NCC(=O)N1CCC[C@H]1C(=O)N[C@@H](CCCNC(=N)N)C(=O)O)[C@@H](C)CC)[C@@H](C)CC [Cecropin P1] (H-SWLSKTAKKLENSAKKRISEGIAIAIQGGPR-OH; N-terminus and C-terminus assumed) |  |  | 2 µg/mL (≈ 0.599 µM) |  | + (key: +: MIC greater than 256 ug/mL; ++: MIC greater than 128 ug/mL, not sufficiently soluble to test as 256 ug/mL) |
| SAVGKLASKVFPAVFSMVTK [Peptide 31] |  | + (MIC greater than 256 ug/mL) | + (MIC greater than 256 ug/mL) |  |  |
| RKRKSDVDFEAEFELFEDDD [Peptide 19] |  | + (MIC greater than 256 ug/mL) | + (MIC greater than 256 ug/mL) |  |  |

The next lines start with results.

| MIC E. coli ([1]; 24 h) | MIC B. cereus [2, 3] | MIC E. coli [1, 3] | MIC B. cereus ([2]; 24 h) | Compound | MIC B. cereus [2] |
| --- | --- | --- | --- | --- | --- |
|  | + (MIC greater than 256 ug/mL) | + (MIC greater than 256 ug/mL) |  | SALGRLASKVVPAVIGKVTT [Peptide 56] |  |
|  | + (MIC greater than 256 ug/mL) | + (MIC greater than 256 ug/mL) |  | AKKAQKSGAQTIVKIFAKGM [Shuffled 39] |  |
| 64 µg/mL (≈ 30.4 µM) |  |  | 32 µg/mL (≈ 15.2 µM) | CC[C@H](C)[C@H](NC(=O)[C@H](CCSC)NC(=O)[C@H](C)NC(=O)[C@@H]1CCCN1C(=O)[C@@H](NC(=O)[C@@H](NC(=O)[C@H](CCCCN)NC(=O)[C@@H](NC(=O)[C@H](CC(C)C)NC(=O)CNC(=O)CNC(=O)[C@H](CC(C)C)NC(=O)[C@@H](N)Cc1ccccc1)[C@@H](C)CC)[C@@H](C)CC)C(C)C)C(=O)N[C@@H](CS)C(=O)N[C@@H](C)C(=O)N[C@H](C(=O)N[C@H](C(=O)N[C@@H](CCCCN)C(=O)N[C@@H](CCCCN)C(=O)N[C@@H](CS)C(=O)O)[C@@H](C)O)C(C)C [Ranalexin] (H-FLGGLIKIVPAMICAVTKKC-OH; N-terminus and C-terminus assumed) |  |
